Measured values taken from article PMC9352624, “Going deeper into the toxicokinetics of synthetic cannabinoids: in vitro contribution of human carboxylesterases” (Archives of Toxicology, 2022).
Where “and” joins values, the source holds several entries; their conditions need not be identical. Identical values can stand only once.

What was measured:
hCES2 = molecular target: T1, hCES2 (Homo sapiens, UniProt O00748); assay: Initial activity screening with recombinant hCES2; details: 100 µM substrate, 30 min, 37 °C, 0.2 µg/µL protein, LC–ITMS; for Relative amount of hydrolysis metabolite formed, hCES2: mean n = 2
T1 sequence (O00748 27-559): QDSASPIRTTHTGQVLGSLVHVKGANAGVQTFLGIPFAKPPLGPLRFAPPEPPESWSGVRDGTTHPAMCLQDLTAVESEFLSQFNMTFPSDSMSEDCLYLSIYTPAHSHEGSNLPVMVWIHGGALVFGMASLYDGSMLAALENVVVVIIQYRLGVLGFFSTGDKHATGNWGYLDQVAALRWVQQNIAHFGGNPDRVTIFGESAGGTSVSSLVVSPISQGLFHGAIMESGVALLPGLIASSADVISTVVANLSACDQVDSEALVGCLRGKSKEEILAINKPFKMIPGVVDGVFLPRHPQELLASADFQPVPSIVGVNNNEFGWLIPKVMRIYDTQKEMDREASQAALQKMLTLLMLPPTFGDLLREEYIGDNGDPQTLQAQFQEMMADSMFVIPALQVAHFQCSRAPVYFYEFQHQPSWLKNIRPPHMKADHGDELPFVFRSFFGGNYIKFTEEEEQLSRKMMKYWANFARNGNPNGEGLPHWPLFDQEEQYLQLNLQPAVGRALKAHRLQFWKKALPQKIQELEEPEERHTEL

hCES1b [1] = molecular target: T2, hCES1b (Homo sapiens, UniProt P23141); assay: Initial activity screening with recombinant hCES1b; details: 100 µM substrate, 30 min, 37 °C, 0.2 µg/µL protein, LC–ITMS; for Relative amount of hydrolysis metabolite formed, hCES1b: mean n = 2
T2 sequence (P23141 18-567): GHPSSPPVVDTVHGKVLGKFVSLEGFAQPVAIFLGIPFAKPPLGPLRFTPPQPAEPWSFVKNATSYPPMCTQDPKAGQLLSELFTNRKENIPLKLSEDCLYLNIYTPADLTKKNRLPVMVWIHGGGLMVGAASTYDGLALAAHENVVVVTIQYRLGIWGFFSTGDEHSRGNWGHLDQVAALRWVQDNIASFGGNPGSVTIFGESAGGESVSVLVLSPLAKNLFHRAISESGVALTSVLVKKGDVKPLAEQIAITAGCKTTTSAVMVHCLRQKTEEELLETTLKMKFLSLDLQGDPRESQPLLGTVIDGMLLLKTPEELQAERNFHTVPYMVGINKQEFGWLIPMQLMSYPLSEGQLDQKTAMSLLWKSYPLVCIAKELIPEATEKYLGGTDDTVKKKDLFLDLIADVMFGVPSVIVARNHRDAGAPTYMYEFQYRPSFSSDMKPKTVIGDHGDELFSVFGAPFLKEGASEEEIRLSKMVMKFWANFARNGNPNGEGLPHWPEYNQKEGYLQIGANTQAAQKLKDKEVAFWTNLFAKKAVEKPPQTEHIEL

hCES1c [2] = molecular target: T3, hCES1c (Homo sapiens, UniProt P23141); assay: Initial activity screening with recombinant hCES1c; details: 100 µM substrate, 30 min, 37 °C, 0.2 µg/µL protein, LC–ITMS; for Relative amount of hydrolysis metabolite formed, hCES1c: mean n = 2
T3 sequence (P23141 18-566 isoform P23141-3 limits assumed): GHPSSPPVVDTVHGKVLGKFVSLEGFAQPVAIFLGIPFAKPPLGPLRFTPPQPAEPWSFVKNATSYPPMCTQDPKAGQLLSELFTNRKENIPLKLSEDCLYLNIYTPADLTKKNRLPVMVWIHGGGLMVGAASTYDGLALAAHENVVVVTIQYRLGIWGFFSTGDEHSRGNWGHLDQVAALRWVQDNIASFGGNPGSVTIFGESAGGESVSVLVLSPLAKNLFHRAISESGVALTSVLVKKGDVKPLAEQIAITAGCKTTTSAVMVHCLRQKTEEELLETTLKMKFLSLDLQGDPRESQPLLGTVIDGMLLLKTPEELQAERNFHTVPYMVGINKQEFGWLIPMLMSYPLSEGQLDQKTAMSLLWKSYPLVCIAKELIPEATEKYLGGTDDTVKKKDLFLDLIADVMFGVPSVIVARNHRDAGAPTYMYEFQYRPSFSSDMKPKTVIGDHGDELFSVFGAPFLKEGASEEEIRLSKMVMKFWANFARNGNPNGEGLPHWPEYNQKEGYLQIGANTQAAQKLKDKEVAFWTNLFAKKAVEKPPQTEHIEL

[3] = Initial activity screening with pooled human liver microsomes; details: 100 µM substrate, 30 min, 37 °C, 2 µg/µL protein, LC–ITMS, mean n = 2
[4] = Initial activity screening with pooled human liver S9 fraction; details: 100 µM substrate, 30 min, 37 °C, 2 µg/µL protein, LC–ITMS, mean n = 2
hCES1c [5] = molecular target: T3, hCES1c; assay: Enzyme kinetic studies of ester hydrolysis with hCES1c; details: for Clint (relative in vitro intrinsic clearance), hCES1c: Clint = Vmax/Km; for Vmax (relative), ester hydrolysis by hCES1c: ± S.D., peak area ratio metabolite/internal standard
hCES1b [6] = molecular target: T2, hCES1b; assay: Enzyme kinetic studies of ester hydrolysis with hCES1b; details: for Clint (relative in vitro intrinsic clearance), hCES1b: Clint = Vmax/Km; for Vmax (relative), ester hydrolysis by hCES1b: peak area ratio metabolite/internal standard

Compound | Hydrolysis of carboxamide linker, hCES2 (hCES2) | Hydrolysis of carboxamide/ester in head group, hCES2 (hCES2) | Hydrolysis of carboxamide linker, hCES1b (hCES1b [1]) | Hydrolysis of carboxamide/ester in head group, hCES1b (hCES1b [1]) | Hydrolysis of carboxamide linker, hCES1c (hCES1c [2]) | Hydrolysis of carboxamide/ester in head group, hCES1c (hCES1c [2]) | Relative amount of hydrolysis metabolite formed, hCES1b (hCES1b [1]) | Relative amount of hydrolysis metabolite formed, hCES1c (hCES1c [2]) | Relative amount of hydrolysis metabolite formed, pHLM [3] | Relative amount of hydrolysis metabolite formed, pHLS9 [4] | Relative amount of hydrolysis metabolite formed, hCES2 (hCES2) [%] | Clint (relative in vitro intrinsic clearance), hCES1c (hCES1c [5]) [AU/min/mg/µM] | Vmax (relative), ester hydrolysis by hCES1c (hCES1c [5]) | Clint (relative in vitro intrinsic clearance), hCES1b (hCES1b [6]) [AU/min/mg/µM] | Vmax (relative), ester hydrolysis by hCES1b (hCES1b [6]; ± S.D.) | Km (hCES1b [6]; read-out: Km, ester hydrolysis by hCES1b, ± S.D., Michaelis–Menten fit, conditions of Table 1) [µM]
CC(C)[C@H](NC(=O)c1cc(-c2ccc(F)cc2)nn1CCCCCF)C(N)=O [3,5-AB-5F-FUPPYCA, N-[(1S)-1-(aminocarbonyl)-2-methylpropyl]-1-(5-fluoropentyl)-3-(4-fluorophenyl)-1H-pyrazole-5-carboxamide] | − | − | − | − | − | − |  |  |  |  |  |  |  |  |  | 
O=C(NC12CC3CC(CC(C3)C1)C2)c1nn(CC2CCCCC2)c2ccccc12 [A-CHMINACA, 1-cyclohexylmethyl-N-tricyclo[3.3.1.13,7]dec-1-yl-1H-indazole-3-carboxamide] | − |  | − |  | − |  |  |  |  |  |  |  |  |  |  | 
CC(C)[C@H](NC(=O)c1cn(CCCCCF)c2ncccc12)C(N)=O [AB-5F-P7AICA, (S)-N-(1-amino-3-methyl-1-oxobutan-2-yl)-1-(5-fluoropentyl)-1H-pyrrolo[2,3-b]pyridine-3-carboxamide] | − | − | − | − | − | − |  |  |  |  |  |  |  |  |  | 
CC(C)(C)C(NC(=O)c1nn(CC2CCCCC2)c2ccccc12)C(=O)O (stereo not shown) [DMBA-CHMINACA, 2-[1-(cyclohexylmethyl)-1H-indazole-3-carboxamido]-3,3-dimethylbutanoic acid] | − |  | − |  | − |  |  |  |  |  |  |  |  |  |  | 
CC(C)C(NC(=O)c1nn(CC2CCCCC2)c2ccccc12)C(=O)O (stereo not shown) [MBA-CHMINACA, 2-[1-(cyclohexylmethyl)-1H-indazole-3-carboxamido]-3-methylbutanoic acid] | − |  | − |  | − |  |  |  |  |  |  |  |  |  |  | 
COC(=O)[C@@H](NC(=O)c1nn(CCCCF)c2ccccc12)C(C)(C)C [MDMB-4F-BINACA, methyl (2S)-2-[1-(4-fluorobutyl)-1H-indazole-3-carbonyl]amino-3,3-dimethylbutanoate] | − |  | − | + | − | + | below 1% | below 1% | 4.3% | around 1% |  |  |  |  |  | 
C=CCCCn1nc(C(=O)N[C@H](C(=O)OC)C(C)(C)C)c2ccccc21 [MDMB-4en-PINACA, methyl (2S)-3,3-dimethyl-2-[(1-pent-4-enylindazole-3-carbonyl)amino]butanoate] | − |  | − | + | − | + | below 1% | below 1% | around 1% | around 1% |  |  |  |  |  | 
COC(=O)[C@@H](NC(=O)c1cn(CCCCCF)c2ccccc12)C(C)(C)C [MDMB-5F-PICA, methyl (2S)-2-{[1-(5-fluoropentyl)-1H-indole-3-carbonyl]amino}-3,3-dimethylbutanoate] | − |  | − | − | − | − |  |  |  |  |  |  |  |  |  | 
COC(=O)[C@@H](NC(=O)c1cn(Cc2ccc(F)cc2)c2ccccc12)C(C)(C)C [MDMB-FUBICA, methyl (2S)-2-({1-[(4-fluorophenyl)methyl]-1H-indole-3-carbonyl}amino)-3,3-dimethylbutanoate] | − |  | − | − | − | + |  | below 1% | around 1% | around 1% |  |  |  |  |  | 
C=CCCCn1cc(C(=O)N[C@H](C(=O)OC)C(C)C)c2ccccc21 [MMB-4en-PICA, methyl (1-(pent-4-en-1-yl)-1H-indole-3-carbonyl)-L-valinate] | − | + | − | + | − | + | 1.5% | 5.7% |  | 11% | 0.2 | 0.04 | 7.57 AU/min/mg and 7.57 ± 0.42 AU/min/mg |  |  | 
COC(=O)C(Cc1ccccc1)NC(=O)c1cn(CCCCCF)c2ccccc12 [MPhP-5F-PICA, methyl (1-(5-fluorpentyl)-1H-indole-3-carbonyl)-L-phenylalaninate] | − | + | − | + | − | + | 19% | 20% |  |  | 2.1 | 3.2 | 73.6 AU/min/mg and 73.6 ± 3.8 AU/min/mg | 2.0 | 182 AU/min/mg and 182 ± 13 AU/min/mg | 
N-[(2S)-1-amino-3,3-dimethyl-1-oxobutan-2-yl]-1-(cyclohexylmethyl)-1H-indole-3-carboxamide [MMB-CHMICA] | − |  | − | + | − | + | 14% | 2.3% | 25% |  |  |  |  | 0.53 | 20.8 AU/min/mg and 20.8 ± 2.2 AU/min/mg | 39.3 ± 12
